{
  "source": "patent US20210308089A1",
  "about": "“METHODS OF TREATING AND/OR PREVENTING VIRAL INFECTIONS AND/OR DISEASES CAUSED BY VIRUSES IN A SUBJECT IN NEED THEREOF” (priority 2020, published 2021)",
  "type_in_all_cases": "in vivo, human",
  "key": {"[1]": {"test_system": "statin-treated patients with established atherosclerosis or diabetes and elevated triglycerides", "experiment": "REDUCE-IT: total (first and recurrent) ischemic events analysis", "from_the_text": "The following study was a multi-center, placebo-controlled clinical trial the details of which are described above in Example 1, the REDUCE-IT design. […] Randomization was stratified by cardiovascular risk cohort (i.e., secondary or primary prevention), use of ezetimibe, and by geographic region.\nThe primary outcome for the study was total recurrent events consisting of the composite of cardiovascular death, nonfatal myocardial infarction, nonfatal stroke, coronary revascularization, or hospitalization for unstable angina. Recurrent event analyses were also performed for the key secondary endpoint, a composite of cardiovascular death, nonfatal myocardial infarction, or nonfatal stroke. For each of these composite endpoints, the effects of icosapent ethyl in the secondary and primary prevention strata were examined separately.\nDemographic and baseline disease characteristics are presented using frequencies and percentages for categorical variables and medians with interquartile ranges for continuous variables. Between treatment group comparisons were derived using the chi-square test for categorical variables and Wilcoxon rank test for continuous variables. All clinical endpoint events used in the efficacy analyses were adjudicated by an independent Clinical Endpoint Committee (CEC) who were blinded to the treatment assignment. Since the primary efficacy endpoint was the time from randomization to the first occurrence of any component of the composite endpoint, and recurrence of such events within each patient is possible, a pre-specified analysis using a Cox proportional-hazard with the counting-process formulation of Andersen and Gill was performed to model the first and all recurrent cardiovascular events. HRs and corresponding 95% CIs are reported from this model. In addition, as a marginal model and an extension of survival models based on the Cox proportional hazard model, the modified Wei-Lin-Weissfeld (WLW) method for analysis of recurrent events in the presence of deaths was carried out as a supportive analysis. In addition, as pre-specified, a recurrent event analysis using the Andersen-Gill and Wei-Lin-Weissfeld methods was carried out for the individual primary event components other than CV death. Though not pre-specified, additional recurrent event analyses were performed for the key secondary endpoint, which is a composite of CV death, nonfatal MI, or nonfatal stroke, and for the primary endpoint and the key secondary endpoint in the primary and secondary prevention strata to explore further the consistency of clinical benefit of icosapent ethyl. In subgroup analyses of the two cardiovascular risk strata (i.e., primary and secondary prevention), site-level discrepancies in cardiovascular risk group assignment occurring at entry and detected during the study (1.8%) were adjusted to conform with documented medical history data prior to randomization. All efficacy analyses were performed according to the intention-to-treat principle. All tests were based on a 2-sided nominal significance level of 5% with no adjustments for multiple comparisons."}, "[2]": {"test_system": "symptomatic COVID-19 outpatients with positive SARS-CoV-2 test", "experiment": "VASCEPA-COVID-19: FLU-PRO symptom prevalence and scores (and correlation with hs-CRP)"}, "[3]": {"test_system": "symptomatic COVID-19 outpatients with positive SARS-CoV-2 test", "experiment": "VASCEPA-COVID-19: adverse events", "from_the_text": "Safety monitoring was undertaken at each study visit in accordance with Health Canada regulations and local reporting guidelines. All serious, unexpected adverse drug reactions (ADRs) were reported to Health Canada in accordance with Division 5 of Part C of the Food and Drug Regulations.\nAn adverse event (AE) is defined as any untoward medical occurrence, including an exacerbation of a pre-existing condition, in a patient in a clinical investigation who received a pharmaceutical product.\nThe intensity of the AE should be judged based on the following: • a) Mild: Awareness of sign(s) or symptom(s) that is/are easily tolerated; • b) Moderate: Sufficient discomfort to cause interference with usual activity; or • c) Severe: Incapacitating or causing inability to work or to perform usual activities."}, "[4]": {"conditions": "n = 50, intention-to-treat, usual care 0"}, "[5]": {"conditions": "n = 50, intention-to-treat, usual care 6"}},
  "data": [
    {"smiles": "CC/C=C\\C/C=C\\C/C=C\\C/C=C\\C/C=C\\CCCC(=O)OCC", "note": "[icosapent ethyl, eicosapentaenoic acid ethyl ester]", "values": [
      {"measurement": "Total primary endpoint events: HR vs placebo", "setting": "[1]; overall trial", "result": 0.68},
      {"measurement": "Total primary endpoint events prevented", "setting": "[1]; per 100 patients treated for five years", "result": "approximately 16"},
      {"measurement": "Total key secondary endpoint: HR", "setting": "[1]; primary prevention stratum, vs placebo", "result": 0.71},
      {"measurement": "Total key secondary endpoint: HR", "setting": "[1]; secondary prevention stratum, vs placebo", "result": 0.70},
      {"measurement": "First events reduced by", "setting": "[1]; vs placebo", "result": 25, "unit": "%"},
      {"measurement": "Second events reduced by", "setting": "[1]; vs placebo", "result": 28, "unit": "%"},
      {"measurement": "Third or more events reduced by", "setting": "[1]; vs placebo", "result": 50, "unit": "%"},
      {"measurement": "Total events for the primary composite efficacy outcome: relative risk reduction", "setting": "[1]; vs placebo", "result": 32, "unit": "%"},
      {"measurement": "Total FLU-PRO symptom prevalence reduced by", "setting": "[2]; 14+3-day follow-up", "result": 52, "unit": "%"},
      {"measurement": "Reduction in chest/respiratory symptoms (FLU-PRO prevalence)", "setting": "[2]; baseline to follow-up", "result": 69, "unit": "%"},
      {"measurement": "Change in mean FLU-PRO score, total domain", "setting": "[2]; baseline to follow-up, patients with non-zero treatment compliance", "result": "−0.16"},
      {"measurement": "Discontinuations with the 8 g per day loading dose", "setting": "[3]; VASCEPA-COVID-19", "result": "no discontinuations"},
      {"measurement": "Tolerability", "setting": "[3]; VASCEPA-COVID-19, 14 days", "result": "well tolerated"},
      {"measurement": "Serious AEs or deaths", "setting": "[3]; VASCEPA-COVID-19 trial population", "result": "No serious AEs or deaths occurred"},
      {"measurement": "Mild adverse events: Gastrointestinal disorders, %", "setting": "[3]; [4]", "result": 8, "unit": "%"},
      {"measurement": "Moderate adverse events: Gastrointestinal disorders, %", "setting": "[3]; [4]", "result": 2, "unit": "%"},
      {"measurement": "Moderate adverse events: Respiratory disorders, %", "setting": "[3]; [5]", "result": 2, "unit": "%"},
      {"measurement": "Total adverse events, %", "setting": "[3]; [5]", "result": 12, "unit": "%"}
    ]}
  ]
}
